# Laboratory results from patent US20230150970A1, “AMINOPYRIMIDINE DERIVATIVES AND THEIR USE AS ARYL HYDROCARBON RECEPTOR MODULATORS” (DONG-A ST CO., LTD., priority 2020, published 2023).
# Like-named read-outs stand apart in the source and are kept apart here.
# Key:
# [1] = target: T1, AhR (Homo sapiens, UniProt P35869); test: In Vitro Assay 1: XRE-luciferase reporter assay, antagonism in human cell line (HepG2)
# T1 sequence (P35869 11-848): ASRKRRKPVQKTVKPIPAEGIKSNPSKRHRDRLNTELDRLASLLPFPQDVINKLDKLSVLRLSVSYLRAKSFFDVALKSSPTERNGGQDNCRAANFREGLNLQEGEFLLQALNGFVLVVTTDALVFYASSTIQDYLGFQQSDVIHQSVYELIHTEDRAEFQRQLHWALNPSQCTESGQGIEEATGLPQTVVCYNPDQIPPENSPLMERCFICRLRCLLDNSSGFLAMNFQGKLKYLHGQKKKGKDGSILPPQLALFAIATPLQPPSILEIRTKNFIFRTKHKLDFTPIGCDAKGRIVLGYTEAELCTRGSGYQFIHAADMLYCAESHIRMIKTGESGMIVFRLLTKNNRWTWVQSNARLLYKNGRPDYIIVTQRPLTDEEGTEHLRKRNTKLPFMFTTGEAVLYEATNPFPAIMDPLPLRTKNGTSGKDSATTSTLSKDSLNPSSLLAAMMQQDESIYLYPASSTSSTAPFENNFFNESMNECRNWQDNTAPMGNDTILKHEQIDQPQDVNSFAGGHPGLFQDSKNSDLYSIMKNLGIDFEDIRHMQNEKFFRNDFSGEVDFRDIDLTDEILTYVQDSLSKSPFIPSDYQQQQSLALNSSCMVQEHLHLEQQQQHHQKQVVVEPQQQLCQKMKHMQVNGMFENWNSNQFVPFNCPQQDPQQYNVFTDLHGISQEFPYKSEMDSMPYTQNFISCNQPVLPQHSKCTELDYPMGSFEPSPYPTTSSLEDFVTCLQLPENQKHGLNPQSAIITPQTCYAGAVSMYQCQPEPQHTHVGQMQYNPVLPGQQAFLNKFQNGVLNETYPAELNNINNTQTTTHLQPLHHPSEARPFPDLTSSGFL
# [2] = target: T1, AhR; test: In Vitro Assay 4: endogenous AhR activity assay (CYP1A1 and CYP1B1 mRNA, qRT-PCR, HepG2 cells)
# [3] = target: T1, AhR; test: In Vitro Assay 3: XRE-luciferase reporter assay, agonism in human cell line (HepG2); type: cell-based; set-up: endogenous in cells; host or cells: HepG2; conditions: HepG2, tryptophan free medium, 6 hours, no agonist, read-out: Assay 3: AhR-Luc Human Agonism (EC50)
# Experimental: In Vitro Assay 3: Agonism in Human Cell Line
# HepG2 (human hepatoma cell line) cells co-transfected with XRE-Luc and Nano-Luc plasmids were plated in tryptophan free medium containing 1% of dialyzed fetal bovine serum and incubated overnight at 37° C. in a CO2 incubator. After 24 hours, cells were treated for 6 hours with test compounds or not. […] As a positive control, cells were incubated with TCDD.
# [4] = target: T2, AhR (Mus musculus, UniProt P30561); test: In Vitro Assay 2: XRE-luciferase reporter assay, antagonism in mouse cell line (Hepa1c1c7); type: cell-based; conditions: 6 hours, read-out: Assay 2: AhR-Luc Mouse Antagonism (IC50)
# T2 sequence (P30561 1-848): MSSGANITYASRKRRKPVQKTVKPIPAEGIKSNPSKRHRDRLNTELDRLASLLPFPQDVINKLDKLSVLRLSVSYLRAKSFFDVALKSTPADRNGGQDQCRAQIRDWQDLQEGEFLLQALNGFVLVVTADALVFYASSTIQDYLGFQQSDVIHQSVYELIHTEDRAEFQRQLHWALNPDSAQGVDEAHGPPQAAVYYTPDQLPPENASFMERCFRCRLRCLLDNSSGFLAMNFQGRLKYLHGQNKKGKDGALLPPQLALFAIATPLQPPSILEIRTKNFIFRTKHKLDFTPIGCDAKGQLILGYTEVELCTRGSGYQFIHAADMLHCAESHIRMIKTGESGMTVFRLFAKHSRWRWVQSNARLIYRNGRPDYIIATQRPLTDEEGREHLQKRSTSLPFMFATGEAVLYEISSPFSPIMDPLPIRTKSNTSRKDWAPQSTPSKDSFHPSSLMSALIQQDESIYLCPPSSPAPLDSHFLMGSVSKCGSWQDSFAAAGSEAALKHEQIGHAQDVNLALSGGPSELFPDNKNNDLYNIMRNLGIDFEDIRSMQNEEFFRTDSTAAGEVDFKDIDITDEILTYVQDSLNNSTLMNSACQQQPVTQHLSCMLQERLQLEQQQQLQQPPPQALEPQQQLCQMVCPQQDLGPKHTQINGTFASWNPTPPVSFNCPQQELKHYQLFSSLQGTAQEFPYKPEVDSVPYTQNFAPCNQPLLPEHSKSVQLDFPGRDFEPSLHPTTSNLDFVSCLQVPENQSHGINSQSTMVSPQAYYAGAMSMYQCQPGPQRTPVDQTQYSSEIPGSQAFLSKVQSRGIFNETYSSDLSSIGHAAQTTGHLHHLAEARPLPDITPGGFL
# Experimental: In Vitro Assay 2: Antagonism in Mouse Cell Line
# Hepa1c1c7 (murine liver cancer cell line) cells co-transfected with XRE-Luc and Nano-Luc plasmids were plated in complete medium and incubated overnight at 37° C. in a CO2 incubator. Following incubation, cells were treated with AhR activating ligands such as kynurenic acid, kynurenine (#) with or without test compounds for 6 hours.
# [5] = Assay 1: AhR-Luc Human Antagonism (IC50, nM), values marked *: kynurenine 50 μM, 6 hours
# [6] = HepG2, read-out: CYP1A1 (% Inhibition)
# [7] = HepG2, read-out: CYP1B1 (% Inhibition)
# [8] = Assay 1: AhR-Luc Human Antagonism (IC50, nM), unmarked values: kynurenine 200 μM, 6 hours
# [9] = unmarked values: AhR activating ligand kynurenic acid
Compound,"IC50 [1, 8] [nM]",EC50 ([3]; class in brackets of the cell) [nM],EC50 ([3]; number of the cell) [nM],"inhibition at 0.123 µM [2, 6] [%]","inhibition at 0.123 µM [2, 7] [%]",also measured
"CC1CCN(c2cc(-c3ccc(Cl)cc3)nc(-c3cccnc3)n2)CC1 [Example 27, 4-(4-chlorophenyl)-6-(4-methylpiperidin-1-yl)-2-(pyridin-3-yl)pyrimidine]",–,–,–,68.4,90.3,"IC50 [1, 5]: < 10 nM"
"OCC1CCN(c2cc(-c3ccc(Cl)cc3)nc(-c3cccnc3)n2)CC1 [Example 42, (1-(6-(4-chlorophenyl)-2-(pyridin-3-yl)pyrimidin-4-yl)piperidin-4-yl)methanol]",–,–,–,98.8,99.3,"IC50 [1, 5]: < 10 nM"
"OCCC1CCN(c2cc(-c3ccc(Cl)cc3)nc(-c3cccnc3)n2)CC1 [Example 43, 2-(1-(6-(4-chlorophenyl)-2-(pyridin-3-yl)pyrimidin-4-yl)piperidin-4-yl)ethan-1-ol]",–,–,–,97.1,100,"IC50 [1, 5]: < 10 nM"
"CC(=O)N1CCC(Nc2cc(-c3ccc(Cl)cc3)nc(-c3cccnc3)n2)CC1 [Example 146, 1-(4-((6-(4-chlorophenyl)-2-(pyridin-3-yl)pyrimidin-4-yl)amino)piperidin-1-yl)ethan-1-one]",–,–,–,41.8,77.2,"IC50 [1, 5]: 10 to 100 nM"
"COc1ccc(-c2cc(N3CCC(CO)CC3)nc(-c3cccnc3)n2)cc1 [Example 228, (1-(6-(4-methoxyphenyl)-2-(pyridin-3-yl)pyrimidin-4-yl)piperidin-4-yl)methanol]",10 to 100,–,–,107,101,–
"Cc1ccc(-c2cc(N3CCC(CO)CC3)nc(-c3cccnc3)n2)cc1 [Example 229, (1-(2-(pyridin-3-yl)-6-(p-tolyl)pyrimidin-4-yl)piperidin-4-yl)methanol]",10 to 100,> 10000,> 30000,108,101,–
"OC[C@H]1CCN(c2cc(-c3ccc(C(F)(F)F)cc3)nc(-c3cccnc3)n2)C[C@@H]1O [Example 260, (3R,4R)-4-(hydroxymethyl)-1-(2-(pyridin-3-yl)-6-(4-(trifluoromethyl)phenyl)pyrimidin-4-yl)piperidin-3-ol]",< 10,> 10000,> 30000,–,–,–
"OC[C@@H]1CCN(c2cc(-c3ccc(C(F)(F)F)cc3)nc(-c3cccnc3)n2)C[C@H]1O [Example 262, (3S,4S)-4-(hydroxymethyl)-1-(2-(pyridin-3-yl)-6-(4-(trifluoromethyl)phenyl)pyrimidin-4-yl)piperidin-3-ol]",< 10,> 10000,> 30000,–,–,–
"OCC1CCN(c2cc(-c3ccc(Cl)c(O)c3)nc(-c3cccnc3)n2)CC1 [Example 273, 2-chloro-5-(6-(4-(hydroxymethyl)piperidin-1-yl)-2-(pyridin-3-yl)pyrimidin-4-yl)phenol]",10 to 100,> 10000,> 30000,–,–,–
"OCC1CCN(c2cc(-c3ccc(N4CCOCC4)c(F)c3)nc(-c3cccnc3)n2)CC1 [Example 276, (1-(6-(3-fluoro-4-morpholinophenyl)-2-(pyridin-3-yl)pyrimidin-4-yl)piperidin-4-yl)methanol]",< 10,> 10000,> 30000,–,–,–
"Cn1cc(-c2nc(-c3ccc(C(F)(F)F)cc3)cc(N3CC[C@@H](C(=O)O)C3)n2)cn1 [Example 312, (R)-1-(2-(1-methyl-1H-pyrazol-4-yl)-6-(4-(trifluoromethyl)phenyl)pyrimidin-4-yl)pyrrolidine-3-carboxylic acid]",–,–,–,–,–,"IC50 [4, 9]: > 1000 nM"
"O=S(=O)(C(F)F)N1CCN(c2cc(-c3ccc(Cl)cc3)nc(-c3cccnc3)n2)CC1 [Example 339, 4-(4-chlorophenyl)-6-(4-((difluoromethyl)sulfonyl)piperazin-1-yl)-2-(pyridin-3-yl)pyrimidine]",10 to 100,–,–,84.7,–,–
"O=S(=O)(CCO)N1CCN(c2cc(-c3ccc(C(F)(F)F)cc3)nc(-c3cccnc3)n2)CC1 [Example 349, 2-((4-(2-(pyridin-3-yl)-6-(4-(trifluoromethyl)phenyl)pyrimidin-4-yl)piperazin-1-yl)sulfonyl)ethan-1-ol]",< 10,–,–,97.6,–,–
"(3R,4R)-1-(6-(4-chlorophenyl)-2-(pyridin-3-yl)pyrimidin-4-yl)pyrrolidine-3,4-diol [Example 230]",–,–,–,–,–,"IC50 ([1]; read-out: Assay 1: AhR-Luc Human Antagonism (IC50), values marked *: kynurenine 50 μM, 6 hours): 10 to 100 nM; IC50 ([4]; values marked #: AhR activating ligand kynurenine): 10 to 100 nM"

# Now from value to compound, other results behind:
"IC50 [1, 8] [nM]",EC50 ([3]; class in brackets of the cell) [nM],EC50 ([3]; number of the cell) [nM],Compound,"inhibition at 0.123 µM [2, 6] [%]","inhibition at 0.123 µM [2, 7] [%]",also measured
10 to 100,> 10000,> 30000,"OCC1CCN(c2cc(-c3ccc(OC4CCCCO4)cc3)nc(-c3cccnc3)n2)CC1 (centres unmarked) [Example 278, (1-(2-(pyridin-3-yl)-6-(4-((tetrahydro-2H-pyran-2-yl)oxy)phenyl)pyrimidin-4-yl)piperidin-4-yl)methanol]",–,–,–
< 10,–,–,"OC[C@H]1CN(c2cc(-c3ccc(C(F)(F)F)cc3)nc(-c3cccnc3)n2)CCO1 [Example 280, (R)-(4-(2-(pyridin-3-yl)-6-(4-(trifluoromethyl)phenyl)pyrimidin-4-yl)morpholin-2-yl)methanol]",–,–,"IC50 [4, 9]: 10 to 100 nM"
< 10,> 10000,> 30000,"OCC1CCN(c2cc(-c3ccc(N4CCOCC4)nc3)nc(-c3cccnc3)n2)CC1 [Example 289, (1-(6-(6-morpholinopyridin-3-yl)-2-(pyridin-3-yl)pyrimidin-4-yl)piperidin-4-yl)methanol]",–,–,–
< 10,> 10000,> 30000,"O[C@H]1CON(c2cc(-c3ccc(C(F)(F)F)cc3)nc(-c3cccnc3)n2)C1 [Example 314, (R)-2-(2-(pyridin-3-yl)-6-(4-(trifluoromethyl)phenyl)pyrimidin-4-yl)isoxazolidin-4-ol]",–,–,–
< 10,> 10000,> 30000,"O=C(CCCO)N1CCN(c2cc(-c3ccc(Cl)cc3)nc(-c3cccnc3)n2)CC1 [Example 361, 1-(4-(6-(4-chlorophenyl)-2-(pyridin-3-yl)pyrimidin-4-yl)piperazin-1-yl)-4-hydroxybutan-1-one]",–,–,–
